# According to patent publication US8034818B2, “Therapeutic uses of derivatives of piperidinyl- and piperazinyl-alkyl carbamates” (Sanofi-Aventis, priority 2004, dated 2011):
# Structures can show the parent of a compound that is named as a salt.
# System: male OF1 mice
# Experiment: test of analgesia: abdominal tractions induced with PBQ (phenylbenzoquinone) i.p.
# Type: in vivo, mouse
# Conditions: (a) 1 mg/kg p.o. at 2 hours, PBQ 2 mg/kg i.p.
# Protocol: The in vivo activity of the compounds of the invention was evaluated in a test of analgesia.
# Thus, the intraperitoneal (i.p.) administration of PBQ (phenylbenzoquinone, 2 mg/kg in 0.9% sodium chloride solution containing 5% ethanol) to male OF1 mice weighing 25 to 30 g, causes abdominal tractions, on average 30 torsions or contractions during the period of 5 to 15 minutes after injection. The test compounds are administered orally or intraperitoneally as a 0.5% suspension in Tween 80, 60 minutes or 120 minutes before the administration of PBQ. Under these conditions, the most powerful compounds of the invention produce a 35% to 70% reduction in the number of tractions induced with PBQ, within a dose range of between 1 and 30 mg/kg.
row,SMILES,Reduction in the number of tractions (%)
1,"CNC(=O)COC(=O)NCCC1CCN(c2cc3ccccc3cn2)CC1 [Compound 166, 2-(Methylamino)-2-oxoethyl 2-[1-(3-isoquinolyl)-4-piperidyl]ethylcarbamate]",−62% (a)

# Same assay, conditions: (b) 3 mg/kg p.o. at 1 hour, PBQ 2 mg/kg i.p.
row,SMILES,Reduction in the number of tractions (%)
1,"CNC(=O)COC(=O)NCCC1CCN(c2cccc(C)n2)CC1 [Compound 47, 2-(Methylamino)-2-oxoethyl 2-[1-(6-methyl-2-pyridyl)-4-piperidyl]ethylcarbamate hydrochloride]",−63% (b)
2,"CNC(=O)COC(=O)NCCC1CCN(c2ccc3ccccc3n2)CC1 [Compound 126, 2-(Methylamino)-2-oxoethyl 2-[1-(2-quinolyl)-4-piperidyl]ethylcarbamate]",−43% (b)

# System: not given
# Experiment: not given
# Conditions: not given
row,SMILES,melting point
1,"CNC(=O)COC(=O)NCCC1CCN(c2cc3ccccc3cn2)CC1 [Compound 166, 2-(Methylamino)-2-oxoethyl 2-[1-(3-isoquinolyl)-4-piperidyl]ethylcarbamate]",156 to 158 °C
2,"CNC(=O)COC(=O)NCCC1CCN(c2cccc(CC(C)C)n2)CC1 [Compound 49, 2-(Methylamino)-2-oxoethyl 2-[1-(6-isobutyl-2-pyridyl)-4-piperidyl]ethylcarbamate]",97 to 99 °C
3,"NC(=O)COC(=O)NCCC1CCN(c2nccc3cc(F)ccc23)CC1 [Compound 158, 2-Amino-2-oxoethyl 2-[1-(6-fluoro-1-isoquinolyl)-4-piperidyl]ethylcarbamate]",135 to 139 °C
4,"CNC(=O)COC(=O)NCCN1CCN(c2cccc3ccccc23)CC1 (as salt: hydrochloride) [Compound 38, 2-(Methylamino)-2-oxoethyl 2-[4-(1-naphthyl)-1-piperazinyl]ethylcarbamate hydrochloride]",166 °C
5,"CNC(=O)COC(=O)NCC1CCN(c2nccc3ccccc23)CC1 (as salt: hydrochloride) [Compound 154, 2-(Methylamino)-2-oxoethyl [1-(1-isoquinolyl)-4-piperidyl]methylcarbamate hydrochloride]",208 to 212 °C (dec.)
6,"CNC(=O)COC(=O)NCCC1CCN(c2ccc3ccccc3n2)CC1 [Compound 126, 2-(Methylamino)-2-oxoethyl 2-[1-(2-quinolyl)-4-piperidyl]ethylcarbamate]",125 to 128 °C
7,"CNC(=O)COC(=O)NCCC1CCN(c2cccc(C)n2)CC1 (as salt: hydrochloride) [Compound 47, 2-(Methylamino)-2-oxoethyl 2-[1-(6-methyl-2-pyridyl)-4-piperidyl]ethylcarbamate hydrochloride]",95 to 100 °C
8,"NC(=O)COC(=O)NCC1CCN(c2cccc(-c3ccccc3)n2)CC1 [Compound 58, 2-Amino-2-oxoethyl 2-[1-(6-phenyl-2-pyridyl)-4-piperidyl]methylcarbamate]",131 to 132 °C
9,"CNC(=O)COC(=O)NCCC1CCN(c2cncc3ccccc23)CC1 (as salt: hydrochloride) [Compound 172, 2-(Methylamino)-2-oxoethyl 2-[1-(4-isoquinolyl)-4-piperidyl]ethylcarbamate hydrochloride]",205 to 210 °C
10,"CNC(=O)COC(=O)NCCC1CCN(c2ccc3c(Cl)cccc3n2)CC1 [Compound 130, 2-(Methylamino)-2-oxoethyl 2-[1-(5-chloro-2-quinolyl)-4-piperidyl]ethylcarbamate]",158 to 162 °C
11,"NC(=O)COC(=O)NCCC1CCN(c2ccc3ccccc3n2)CC1 [Compound 127, 2-Amino-2-oxoethyl 2-[1-(2-quinolyl)-4-piperidyl]ethylcarbamate]",135 to 137 °C
12,"NC(=O)COC(=O)NCCC1CCN(c2cccc(C(F)(F)F)c2)CC1 [Compound 44, 2-Amino-2-oxoethyl 2-{1-[3-(trifluoromethyl)phenyl]-4-piperidyl}ethylcarbamate]",140 to 142 °C
13,"NC(=O)COC(=O)NCCC1CCN(c2ccc3cc(Cl)ccc3n2)CC1 [Compound 137, 2-Amino-2-oxoethyl 2-[1-(6-chloro-2-quinolyl)-4-piperidyl]ethylcarbamate]",189 to 191 °C
14,"CNC(=O)COC(=O)NCCC1(F)CCN(c2ccc3ccccc3n2)CC1 [Compound 128, 2-(Methylamino)-2-oxoethyl 2-[4-fluoro-1-(2-quinolyl)-4-piperidyl]ethylcarbamate]",147 to 149 °C
